Test results published in DBAASP.
≈ marks a conversion by molar mass, not a printed value. Where “and” joins values, the source holds several entries; their conditions need not be identical. Equal values may be shown once. Each block holds one compound with its values, some of them ahead of it.

What was measured:
Experiment in all cases: ≥ marks a high value that may be exact or a test limit, other limits are often not marked, values filed in µg/mL are converted to µM
[1] = test system: Pseudomonas aeruginosa 11053
[2] = test system: Enterococcus faecalis 981
[3] = test system: Bacillus licheniformis X39
[4] = test system: Staphylococcus carnosus KHS
[5] = test system: Rhodococcus rhodochrous X15
[6] = test system: Escherichia coli ATCC 25922
[7] = test system: Serratia rubidaea X01
[8] = test system: Psychrobacter faecalis X29
[9] = test system: Staphylococcus aureus ATCC 25923
[10] = test system: Candida albicans ATCC 10231
[11] = test system: Escherichia coli
[12] = test system: Staphylococcus aureus
[13] = test system: Bifidobacterium longum subsp. infantis
[14] = test system: Staphylococcus epidermidis
[15] = test system: Staphylococcus aureus ATCC BAA-41
[16] = test system: Escherichia coli BL21
[17] = test system: Pseudomonas aeruginosa PAO1
[18] = test system: Staphylococcus aureus ATCC 6538P
[19] = test system: Escherichia coli HP101BA 7601c
[20] = test system: Micrococcus luteus PTCC 1625
[21] = test system: Staphylococcus aureus PTCC 1431
[22] = test system: Klebsiella pneumoniae PTCC 1388
[23] = test system: Listeria monocytogenes EGD
[24] = test system: Escherichia coli ML-35p
[25] = test system: Candida albicans 820
[26] = test system: Escherichia coli ESBL 64771
[27] = test system: Klebsiella pneumoniae ESBL 63575
[28] = test system: Pseudomonas aeruginosa LES400
[29] = test system: Enterococcus faecalis W61950
[30] = test system: Pseudomonas aeruginosa H1030
[31] = test system: Enterococcus faecium mic80
[32] = test system: Pseudomonas aeruginosa 198
[33] = test system: Pseudomonas aeruginosa 213
[34] = test system: Enterococcus faecalis ATCC 29212
[35] = test system: Pseudomonas aeruginosa PAO1 H103
[36] = test system: Pseudomonas aeruginosa 9
[37] = test system: Pseudomonas aeruginosa H1027
[38] = test system: Enterococcus faecalis f43559
[39] = test system: Enterococcus faecium t62764
[40] = test system: Escherichia coli ESBL 63103
[41] = test system: Enterobacter cloacae 218R
[42] = test system: Klebsiella pneumoniae ESBL 61962
[43] = test system: Staphylococcus aureus C623
[44] = test system: Stenotrophomonas maltophilia ATCC 13637

Structure (SMILES): CC[C@H](C)[C@@H]1NC(=O)[C@H](CCCCN)NC(=O)[C@@H](NC(=O)[C@H](Cc2ccccc2)NC(=O)[C@H](CC(C)C)NC(=O)[C@@H](NC(=O)[C@@H]2CCCN2C(=O)[C@@H](NC(=O)[C@@H](NC(=O)[C@H](CCCCN)NC(=O)[C@H](CO)NC(=O)[C@H](C)NC(=O)[C@@H](NC(=O)[C@H](CC(N)=O)NC(=O)[C@H](CC(C)C)NC(=O)[C@H](CC(C)C)NC(=O)[C@@H](NC(=O)[C@H](CO)NC(=O)[C@H](CC(C)C)NC(=O)[C@@H](N)Cc2ccccc2)[C@@H](C)O)C(C)C)C(C)C)C(C)C)[C@@H](C)O)CSSC[C@@H](C(=O)O)NC(=O)[C@H](CCCCN)NC(=O)[C@H](CCCCN)NC(=O)[C@H]([C@@H](C)O)NC1=O [FLSTLLNVASKVVPTLFCKITKKC]
MIC [1]: ≥ 75 µM
MIC [2]: 9 µM (≈ 23.9 µg/mL)
MIC [3]: 9 µM (≈ 23.9 µg/mL)
MIC [4]: 9 µM (≈ 23.9 µg/mL)
MIC [5]: 2.3 µM (≈ 6.1 µg/mL)
MIC [6]: 150 µM (≈ 398 µg/mL)
MIC [7]: 9 µM (≈ 23.9 µg/mL)
MIC [8]: 9 µM (≈ 23.9 µg/mL)
MIC [9]: 9 µM (≈ 23.9 µg/mL)
MIC [10]: 150 µM (≈ 398 µg/mL)

Structure (SMILES): CC[C@H](C)[C@H](NC(=O)[C@@H]1CCCN1C(=O)[C@H](CCC(N)=O)NC(=O)[C@@H]1CCCN1C(=O)[C@@H](NC(=O)[C@H](CCC(N)=O)NC(=O)[C@H](CCC(N)=O)NC(=O)[C@H](CCSC)NC(=O)[C@H](CC(C)C)NC(=O)[C@@H]1CCCN1C(=O)[C@H](CCC(N)=O)NC(=O)[C@H](CC(C)C)NC(=O)[C@H](CC(C)C)NC(=O)[C@@H]1CCCN1C(=O)[C@H](CC(C)C)NC(=O)[C@@H]1CCCN1C(=O)[C@H](CC(C)C)NC(=O)[C@@H](N)Cc1cnc[nH]1)C(C)C)C(=O)O [HLPLPLLQPLMQQVPQPI]
MIC [11]: > 1450 µM
MIC [12]: > 1450 µM
MIC [13]: ≥ 1450 µM

Structure (SMILES): CC[C@H](C)[C@H](NC(=O)[C@H](CCC(N)=O)NC(=O)[C@@H](N)Cc1cnc[nH]1)C(=O)N[C@@H](Cc1ccc(O)cc1)C(=O)N1CCC[C@H]1C(=O)N[C@H](C(=O)N[C@H](C(=O)N[C@@H](CCC(N)=O)C(=O)N1CCC[C@H]1C(=O)N[C@@H](CC(C)C)C(=O)O)[C@@H](C)O)C(C)C [HQIYPVTQPL]
MIC [11]: > 2510 µM
MIC [12]: > 2510 µM
MIC [13]: ≥ 2510 µM

Structure (SMILES): CC[C@H](C)[C@H](NC(=O)[C@H](CCCCN)NC(=O)[C@H](CCCCN)NC(=O)[C@H](Cc1ccccc1)NC(=O)[C@H](CC(C)C)NC(=O)[C@H](CCCCN)NC(=O)[C@H](Cc1c[nH]c2ccccc12)NC(=O)[C@@H](N)CCCCN)C(=O)NCC(=O)N[C@@H](CCCCN)C(=O)N[C@H](C(=O)N[C@@H](CC(C)C)C(=O)N[C@@H](CCCCN)C(=O)N[C@@H](CCCCN)C(=O)N[C@@H](CC(C)C)C(=O)O)C(C)C [KWKLFKKIGKVLKKL]
MIC [14]: 0.25 µM (≈ 0.464 µg/mL)
MIC [15]: 16 µM (≈ 29.7 µg/mL)
MIC [16]: 1 µM (≈ 1.86 µg/mL)
MIC [17]: 1.41 µM (≈ 2.63 µg/mL)
MIC [18]: 5.66 µM (≈ 10.5 µg/mL)

The remaining lines, values ahead:

MIC [19]: 9.6 µM (≈ 18 µg/mL)
MIC [20]: 6 µM (≈ 11.3 µg/mL)
MIC [21]: 8.1 µM (≈ 15.2 µg/mL)
MIC [22]: 10.6 µM (≈ 19.9 µg/mL)
Structure (SMILES): CC(C)C[C@H](NC(=O)CNC(=O)[C@H](C)NC(=O)[C@@H](N)CCCN=C(N)N)C(=O)N[C@@H](CCCCN)C(=O)N[C@@H](Cc1ccccc1)C(=O)N1CCC[C@H]1C(=O)N[C@H](C(=O)NCC(=O)N[C@@H](CCCN=C(N)N)C(=O)N[C@H](C(=O)N[C@@H](Cc1cnc[nH]1)C(=O)N[C@@H](CCCN=C(N)N)C(=O)N[C@@H](CC(C)C)C(=O)N[C@@H](CC(C)C)C(=O)N[C@@H](CCCN=C(N)N)C(=O)O)C(C)C)C(C)C [RAGLKFPVGRVHRLLR]

MIC [23]: 2.1 µM and 1.9 µM
MIC [24]: 1.7 µM and 2.9 µM
MIC [25]: 4 µM and 7.5 µM
Structure (SMILES): CC[C@H](C)[C@@H]1NC(=O)[C@H](CCCN=C(N)N)NC(=O)[C@@H]2CSSC[C@@H]3NC(=O)[C@H](C(C)C)NC(=O)CNC(=O)[C@H](Cc4ccccc4)NC(=O)[C@H](Cc4ccc(O)cc4)NC(=O)[C@H](C(C)C)NC(=O)[C@H](CCC(=O)O)NC(=O)[C@H](CC(C)C)NC(=O)CNC(=O)[C@H](CC(C)C)NC(=O)[C@H](CSSC[C@H](NC(=O)[C@H](CCCN=C(N)N)NC(=O)[C@H](CCCN=C(N)N)NC(=O)[C@H](C)NC(=O)[C@H](CC(C)C)NC(=O)[C@H](CCCN=C(N)N)NC(=O)CNC(=O)[C@H](Cc4cnc[nH]4)NC(=O)[C@H](CC(C)C)NC(=O)[C@H](Cc4ccccc4)NC3=O)C(=O)N[C@H](C(=O)N[C@@H](CCCN=C(N)N)C(=O)O)CSSC[C@H](NC(=O)[C@@H](NC(=O)[C@@H](N)CCCN=C(N)N)[C@@H](C)CC)C(=O)N[C@@H](CCCN=C(N)N)C(=O)N2)NC(=O)[C@H](CCCN=C(N)N)NC(=O)CNC1=O [RICRCRIGRCLGLEVYFGVCFLHGRLARRCCR]

MIC [26]: 1.37 µM (≈ 2 µg/mL)
MIC [27]: 21.2 µM (≈ 31 µg/mL)
MIC [28]: 11 µM (≈ 16 µg/mL)
MIC [29]: ≥ 87 µM
MIC [30]: 21.2 µM (≈ 31 µg/mL)
MIC [31]: 11 µM (≈ 16 µg/mL)
MIC [32]: 21.2 µM (≈ 31 µg/mL)
MIC [33]: ≥ 43.2 µM
MIC [34]: 43.2 µM (≈ 63 µg/mL)
MIC [35]: 11 µM (≈ 16 µg/mL)
MIC [36]: 21.2 µM (≈ 31 µg/mL)
MIC [37]: 2.74 µM (≈ 4 µg/mL)
MIC [9]: 2.74 µM (≈ 4 µg/mL)
MIC [38]: ≥ 87 µM
MIC [39]: 2.74 µM (≈ 4 µg/mL)
MIC [40]: 11 µM (≈ 16 µg/mL)
MIC [41]: ≥ 43.2 µM
MIC [42]: ≥ 87 µM
MIC [43]: 2.74 µM (≈ 4 µg/mL)
MIC [44]: 0.685 µM (≈ 1 µg/mL)
Structure (SMILES): NCCCC[C@H](NC(=O)[C@H](CCCCN)NC(=O)[C@H](Cc1c[nH]c2ccccc12)NC(=O)[C@H](Cc1c[nH]c2ccccc12)NC(=O)[C@H](CCCN=C(N)N)NC(=O)[C@H](CCCCN)NC(=O)[C@@H](N)Cc1c[nH]c2ccccc12)C(=O)N[C@@H](Cc1c[nH]c2ccccc12)C(=O)N[C@@H](CCCN=C(N)N)C(=O)O [WKRWWKKWR]
